The target in assay [1] is T1, Human vitronectin receptor (αv β3) (Homo sapiens, UniProt P05106+P06756).
T1 construct: Human vitronectin receptor(αv β3) was purified from human placenta; from tissue; host or cells: human placenta
Description: Vitronectin adhesion assay (solid phase receptor assay, biotinylated vitronectin competition). The class given is binding. To be noted: inhibition of 50% of the maximum binding of biotinylated vitronectin; 1 nM labeled ligand, 2 hours, room temperature, highest concentration of test compound 1.0×10^-4 M; read-out: AvB3 IC50. The method, then:
VITRONECTIN ADHESION ASSAY Human vitronectin receptor(αv β3) was purified from human placenta as previously described [Pytela et al., Methods in Enzymology, 144:475-489 (1987)). Human vitronectin was purified from fresh frozen plasma as previously described [Yatohgo et al., Cell Structure and Function, 13:281-292 (1988)]. Biotinylated human vitronectin was prepared by coupling NHS-biotin from Pierce Chemical Company (Rockford, Ill.) to purified vitronectin as previously described [Charo et al., J. Biol. Chem., 266(3):1415-1421 (1991)]. Assay buffer, OPD substrate tablets, and RIA grade BSA were obtained from Sigma (St. Louis, Mo.). Anti-biotin antibody was obtained from Calbiochem (La Jolla, Calif.). Linbro microtiter plates were obtained from Flow Labs (McLean, Va.). ADP reagent was obtained from Sigma (St. Louis, Mo.). Solid Phase Receptor Assays This assay was essentially the same as previously reported [Niiya et al., Blood, 70:475-483 (1987)]. The purified human vitronectin receptor (αv β3) was diluted from stock solutions to 1.0 μg/mL in Tris-buffered saline containing 1.0 mM Ca^++, Mg^++, and Mn^++, pH 7.4 (TBS^+++). The diluted receptor was immediately transferred to Linbro microtiter plates at 100 μL/well (100 ng receptor/well). The plates were sealed and incubated overnight at 4° C. to allow the receptor to bind to the wells. All remaining steps were at room temperature. The assay plates were emptied and 200 μL of 1% RIA grade BSA in TBS^+++ (TBS^+++ /BSA) were added to block exposed plastic surfaces. Following a 2 hour incubation, the assay plates were washed with TBS^+++ using a 96 well plate washer. Logarithmic serial dilution of the test compound and controls were made starting at a stock concentration of 2 mM and using 2 nM biotinylated vitronectin in TBS^+++ /BSA as the diluent. This premixing of labeled ligand with test (or control) ligand, and subsequent transfer of 50 μL aliquots to the assay plate was carried out with a CETUS Propette robot; the final concentration of the labeled ligand was 1 nM and the highest concentration of test compound was 1.0×10^-4 M. The competition occurred for two hours after which all wells were washed with a plate washer as before. Affinity purified horseradish peroxidase labeled goat antibiotin antibody was diluted 1:3000 in TBS^+++ /BSA and 125 μL were added to each well. After 30 minutes, the plates were washed and incubated with OPD/H2 O2 substrate in 100 mM/L Citrate buffer, pH 5.0. The plate was read with a microtiter plate reader at a wavelength of 450 nm and when the maximum-binding control wells reached an absorbance of about 1.0, the final A450 were recorded for analysis. The data were analyzed using a macro written for use with the EXCEL™ spreadsheet program. The mean, standard deviation, and %CV were determined for duplicate concentrations. The mean A450 values were normalized to the mean of four maximum-binding controls (no competitor added)(B-MAX). The normalized values were subjected to a four parameter curve fit algorithm [Rodbard et al., Int.

The target in assay [2] is T2, Human fibrinogen receptor (αIIb β3) (Homo sapiens, UniProt P05106+P08514).
T2 construct: Human fibrinogen receptor (αIIb β3) was purified from outdated platelets; from tissue; host or cells: outdated human platelets
In words: Purified IIb/IIIa receptor assay (solid phase receptor assay, biotinylated vitronectin competition). To be noted: inhibition of 50% of the maximum binding of biotinylated vitronectin; 1 nM labeled ligand, 2 hours, room temperature, highest concentration of test compound 1.0×10^-4 M. From the text: PURIFIED IIb/IIIa RECEPTOR ASSAY Human fibrinogen receptor (αIIb β3) was purified from outdated platelets. (Pytela, R., Pierschbacher, […]., Suzuki, S., and […] acid adhesion receptors", Methods in Enzymology 144(1987):475-489.) Human vitronectin was purified from fresh frozen plasma as described in Yatohgo, T., Izumi, M., Kashiwagi, H., and Hayashi, M., "Novel purification of vitronectin from human plasma by heparin affinity chromatography," Cell Structure and Function 13(1988):281-292. Biotinylated human vitronectin was prepared by coupling NHS-biotin from Pierce Chemical Company (Rockford, Ill.) to purified vitronectin as previously described. (Charo, […]., Phillips, D. R., Hsu, M. A., Scarborough, R. M., "Inhibition of fibrinogen binding to GP IIb/IIIa by a GP IIIa peptide", J. Biol. Chem. 266(3)(1991):1415-1421.) Assay buffer, OPD substrate tablets, and RIA grade BSA were obtained from Sigma (St. Louis, Mo.). Anti-biotin antibody was obtained from Calbiochem (La Jolla, Calif.). Linbro microtiter plates were obtained from Flow Labs (McLean, Va.). ADP reagent was obtained from Sigma (St. Louis, Mo.). Solid Phase Receptor Assays This assay is essentially the same reported in […]., Bader, R., Byers-Ward, […]., Plow, E. F. and Ruggeri, Z. M., "Increased surface expression of the membrane glycoprotein IIb/IIIa complex induced by platelet activation: Relationships to the binding of fibrinogen and platelet aggregation", Blood 70(1987):475-483. The purified human fibrinogen receptor (αIIb β3) was diluted from stock solutions to 1.0 μg/mL in Tris-buffered saline containing 1.0 mM Ca^++, Mg^++, and Mn^++, pH 7.4 (TBS^+++). The diluted receptor was immediately transferred to Linbro microtiter plates at 100 μL/well (100 ng receptor/well). The plates were sealed and incubated overnight at 4° C. to allow the receptor to bind to the wells. All remaining steps were at room temperature. The assay plates were emptied and 200 μL of 1% RIA grade BSA in TBS^+++ (TBS^+++ /BSA) were added to block exposed plastic surfaces. Following a 2 hour incubation, the assay plates were washed with TBS^+++ using a 96 well plate washer. Logarithmic serial dilution of the test compound and controls were made starting at a stock concentration of 2 mM and using 2 nM biotinylated vitronectin in TBS^+++ /BSA as the diluent. This premixing of labeled ligand with test (or control) ligand, and subsequent transfer of 50 μL aliquots to the assay plate was carried out with a CETUS Propette robot; the final concentration of the labeled ligand was 1 nM and the highest concentration of test compound was 1.0×10^-4 M. The competition occurred for two hours after which all wells were washed with a plate washer as before. Affinity purified horseradish peroxidase labeled goat antibiotin antibody was diluted 1:3000 in TBS^+++ /BSA and 125 μL were added to each well. After 30 minutes, the plates were washed and incubated with […]/H2 O2 substrate in 100 mM/L citrate buffer, pH 5.0. The plate was read with a microtiter plate reader at a wavelength of 450 nm and when the maximum-binding control wells reached an absorbance of about 1.0, the final A450 were recorded for analysis. The data were analyzed using a macro written for use with the EXCELTM spreadsheet program. The mean, standard deviation, and %CV were determined for duplicate concentrations. The mean A450 values were normalized to the mean of four maximum-binding controls (no competitor added)(B-MAX). The normalized values were subjected to a four parameter curve fit algorithm, [Robard et al., Int.

pIC50: −log10 of the molar value. Where a name gives a salt, the structure may show the parent alone. Bounds are passed on as bounds.

For orientation: pIC50 means the IC50 on a negative log10 scale, so that one unit is a factor of ten.

In the case of `N=C(N)Nc1cccc(C(=O)Nc2cccc(C(CC(=O)O)c3ccccc3)c2)c1` (stereo not drawn) [Example 2, 3-[[[3-[(aminoiminomethyl)amino]phenyl]carbonyl]amino]-β-phenylbenzenepropanoic acid, trifluoroacetate salt], the pIC50 is 6.30 in assay [1] and 5.42 in assay [2].

`NC(=O)Nc1cccc(C(=O)Nc2cccc(C(CC(=O)O)c3ccccc3)c2)c1` (stereo not drawn) [Example 5, 3-[[[3-[(aminocarbonyl)amino]phenyl]carbonyl]amino]-β-phenylbenzenepropanoic acid]: the pIC50 in assay [1] was 4.82; in assay [2], 4.67.

With `NC(=O)Nc1cccc(S(=O)(=O)Nc2cccc(C(CC(=O)O)c3ccccc3)c2)c1` (stereo not drawn) [Example 8, 3-[[[3-[(aminocarbonyl)amino]phenyl]sulfonyl]amino]-β-phenylbenzenepropanoic acid], the results for the pIC50 in assay [1] and in assay [2] were 6.19 and 4.94, respectively.

Take `NC(=S)Nc1cccc(S(=O)(=O)Nc2cccc(C(CC(=O)O)c3ccccc3)c2)c1` (stereo not drawn) [Example 10, 3-[[[3-[(aminothioxomethyl)amino]phenyl]sulfonyl]amino]-β-phenylbenzenepropanoic acid]: the pIC50 in assay [1] was 6.84; in assay [2] it was 5.26.

Take `N=C(N)Nc1cccc(CNc2cccc(C(CC(=O)O)c3ccccc3)c2)c1` (stereo not drawn) [Example 11, 3-[[[3-[(aminoiminomethyl)amino]phenyl]methyl]amino]-β-phenylbenzenepropanoic acid, trifluoroacetate salt]: the negative logarithm of the IC50 (pIC50) in assay [1] was 6.26; in assay [2] it was 5.61.

For `O=C(O)CC(c1ccccc1)c1cccc(NS(=O)(=O)c2cccc(NC(=O)NCc3ccccc3)c2)c1` (stereo not drawn) [Example 13, 3-[[[3-[[[(phenylmethyl)amino]carbonyl]amino]phenyl]sulfonyl]amino]-β-phenylbenzenepropanoic acid, monohydrate], the pIC50 in assay [1] is 6.79; in assay [2], 4.93.

On to `CC(C)(C)OC(=O)CC(c1ccccc1)c1cccc(NS(=O)(=O)c2cccc(NC(N)=NC#N)c2)c1` (stereo not shown) [Example 15], for which the negative logarithm of the IC50 (pIC50) in assay [1] is 7.39; in assay [2], 5.87.

For the compound `CCOC(=O)CCc1cccc(CNC(=O)c2cccc(C#N)c2)c1` [Example 19, ethyl 3-[[[[3-(cyano)phenyl]carbonyl]amino]methyl]benzenepropanoate, diacetate salt], the negative logarithm of the IC50 (pIC50) in assay [1] is under 4.00; in assay [2], 4.24.

In the case of `N=C(N)c1cccc(C(=O)NCc2cccc(CCC(=O)O)c2)c1` [Example 23, 3-[[[[3-(aminoiminomethyl)phenyl]carbonyl]amino]methyl]benzenepropanoic acid, trifluoroacetate salt], the pIC50 in assay [1] is under 5.00; in assay [2] it was 5.36.

For the compound `CCOC(=O)CCc1cccc(CNC(=O)c2cccc(NC(N)=O)c2)c1` [Example 28, ethyl 3-[[[[3-[(aminocarbonyl)amino]phenyl]carbonyl]amino]methyl]benzenepropanoate], the pIC50 in assay [1] and in assay [2] was under 4.00 in each case.

For `NC(=O)Nc1cccc(C(=O)NCc2cccc(CCC(=O)O)c2)c1` [Example 29, 3-[[[[3-[(aminocarbonyl)amino]phenyl]carbonyl]amino]methyl]benzenepropanoic acid], the pIC50 in assay [1] is 5.03; in assay [2], 4.49.

As to `CCOC(=O)CCc1cccc(CNC(=O)c2cccc(NC(=O)NCc3ccccc3)c2)c1` [Example 30, ethyl 3-[[[[3-[[[(phenylmethyl)amino]carbonyl]amino]phenyl]carbonyl]amino]methyl]benzenepropanoate], the pIC50 in assay [1] and in assay [2] was under 4.00 in each case.

`O=C(O)CCc1cccc(CNC(=O)c2cccc(NC(=O)NCc3ccccc3)c2)c1` [Example 31, 3-[[[[3-[[[(phenylmethyl)amino]carbonyl]amino]phenyl]carbonyl]amino]methyl]benzenepropanoic acid]: the values for the pIC50 in assay [1] and in assay [2] were 5.45 and 5.27, respectively.

Turning to `CCOC(=O)CCc1cccc(CNC(=O)c2cccc(NC(=N)N)c2)c1` [Example 34, ethyl 3-[[[[3-[(aminoiminomethyl)amino]phenyl]carbonyl]amino]methyl]benzenepropanoate, trifluoroacetate salt], the values for the pIC50 in assay [1] and in assay [2] were 5.53 and 4.18, respectively.

As for `N=C(N)Nc1cccc(C(=O)NCc2cccc(CCC(=O)O)c2)c1` [Example 35, 3-[[[[3-[(aminoiminomethyl)amino]phenyl]carbonyl]amino]methyl]benzenepropanoic acid, trifluoroacetate salt], the negative logarithm of the IC50 (pIC50) in assay [1] was 6.74; in assay [2], 5.22.

`N=C(N)Nc1cccc(C(=O)Nc2cccc(CCC(=O)O)c2)c1` [Example 36, 3-[[[3-[(aminoiminomethyl)amino]phenyl]carbonyl]amino]benzenepropanoic acid, trifluoroacetate salt]: the pIC50 in assay [1] was 4.86; in assay [2] it was 4.14.

In the case of `CCOC(=O)CC(c1ccccc1)c1cccc(CNC(=O)c2cccc(NC(=N)N)c2)c1` (stereo not drawn) [Example 37, ethyl 3-[[[[3-[(aminoiminomethyl)amino]phenyl]carbonyl]amino]methyl]-β-phenylbenzenepropanoate, trifluoroacetate salt], the figures for the pIC50 in assay [1] and in assay [2] were 4.49 and 4.10, respectively.

Source of the values: patent publication US5773646A, “Meta-substituted phenylene derivatives” (G. D. Searle & Co., priority 1997, dated 1998).
